# Source: patent US20140073628A1, “BENZOXAZEPINES ASN INHIBITORS OF P13K/M TOR AND METHODS OF THEIR USE AND MANUFACTURE” (priority 2010, published 2014)
# Molecular target: mTOR/GbL/Raptor (mTORC1) (Homo sapiens, UniProt P42345)
# Assay: mTOR/GbL/Raptor (mTORC1) ELISA assay
# Assay type: biochemical
# Conditions: phosphorylation of 4E-BP1; 0.2 nM mTORC1, 10 μM ATP, 50 nM NHis-tagged 4E-BP1
# Description: mTOR/GbL/Raptor (mTORC1) ELISA Assay
# The measurement of mTORC1 enzyme activity was performed in an ELISA assay format following the phosphorylation of 4E-BP1 protein. All experiments were performed in the 384-well format. Generally, 0.5 μL DMSO containing varying concentrations of the test compound was mixed with 15 μL enzyme solution. Kinase reactions were initiated with the addition of 15 μL of substrates-containing solution. The assay conditions were as follows; 0.2 nM mTORC1, 10 μM ATP and 50 nM NHis-tagged 4E-BP1 in 20 mM Hepes, pH 7.2, 1 mM DTT, 50 mM NaCl, 10 mM MnCl2, 0.02 mg/mL BSA, 0.01% CHAPS, 50 mM β-glycerophosphate. Following an incubation of 120 minutes at ambient temperature, 20 μL of the reaction volume was transferred to a Ni-Chelate-coated 384-well plate. The binding step of the 4E-BP1 protein proceeded for 60 minutes, followed by washing 4 times each with 50 μL of Tris-buffered saline solution (TBS). Anti-phospho-4E-BP1 rabbit-IgG (20 μL, 1:5000) in 5% BSA-TBST (0.2% Tween-20 in TBS) was added and further incubated for 60 minutes. Incubation with a secondary HRP-tagged anti-IgG was similarly performed after washing off the primary antibody (4 washes of 50 μL). Following the final wash step with TBST, 20 μL of SuperSignal ELISA Femto (Pierce Biotechnology) was added and the luminescence measured using an EnVision plate reader.
row,Compound,IC50 [nM]
1,"Cc1nc2cc(-c3ccc4c(c3)CN(c3nc(CN(C)C)nc(C)c3Br)CCO4)ccc2[nH]1 [Compound 30, 1-{5-bromo-4-methyl-6-[7-(2-methyl-1H-benzimidazol-5-yl)-2,3-dihydro-1,4-benzoxazepin-4(5H)-yl]pyrimidin-2-yl}-N,N-dimethylmethanamine]",500 to 2500
2,"Cc1nc2cc(-c3ccc4c(c3)CN(c3nc(CN(C)C)nc(C)c3Cl)CCO4)ccc2[nH]1 [Compound 31, 1-{5-chloro-4-methyl-6-[7-(2-methyl-1H-benzimidazol-5-yl)-2,3-dihydro-1,4-benzoxazepin-4(5H)-yl]pyrimidin-2-yl}-N,N-dimethylmethanamine]",500 to 2500
3,"CCCc1c(C)nc(CN(C)C)nc1N1CCOc2ccc(-c3ccc4nc(C)[nH]c4c3)cc2C1 [Compound 32, N,N-dimethyl-1-{4-methyl-6-[7-(2-methyl-1H-benzimidazol-6-yl)-2,3-dihydro-1,4-benzoxazepin-4(5H)-yl]-5-propylpyrimidin-2-yl}methanamine]",500 to 2500
4,"COc1ccc2c(N3CCOc4ccc(-c5ccc6[nH]cnc6c5)cc4C3)nc(CN(C)C)nc2c1 [Compound 37, 1-{4-[7-(1H-benzimidazol-5-yl)-2,3-dihydro-1,4-benzoxazepin-4(5H)-yl]-7-(methyloxy)quinazolin-2-yl}-N,N-dimethylmethanamine]",500 to 2500
5,"COc1ccc2c(N3CCOc4ccc(-c5ccc6[nH]c(C)nc6c5)cc4C3)nc(CN(C)C)nc2c1 [Compound 38, N,N-dimethyl-1-{4-[7-(2-methyl-1H-benzimidazol-5-yl)-2,3-dihydro-1,4-benzoxazepin-4(5H)-yl]-7-(methyloxy)quinazolin-2-yl}methanamine]",500 to 2500
6,"CCNc1nc2cc(-c3ccc4c(c3)CN(c3nc(N)nc(C)c3C(C)C)CCO4)ccc2[nH]1 [Compound 42, 5-{4-[2-amino-6-methyl-5-(1-methylethyl)pyrimidin-4-yl]-2,3,4,5-tetrahydro-1,4-benzoxazepin-7-yl}-N-ethyl-1H-benzimidazol-2-amine]",≤ 100
7,"Cc1nc2ncc(-c3ccc4c(c3)CN(c3nc(N)nc5c3CC(C)(C)CC5)CCO4)cc2[nH]1 [Compound 44, 6,6-dimethyl-4-[7-(2-methyl-1H-imidazo[4,5-b]pyridin-6-yl)-2,3-dihydro-1,4-benzoxazepin-4(5H)-yl]-5,6,7,8-tetrahydroquinazolin-2-amine]",≤ 100
8,"CC1(C)CCc2nc(N)nc(N3CCOc4ccc(-c5cnc6[nH]cnc6c5)cc4C3)c2C1 [Compound 45, 4-[7-(3H-imidazo[4,5-b]pyridin-6-yl)-2,3-dihydro-1,4-benzoxazepin-4(5H)-yl]-6,6-dimethyl-5,6,7,8-tetrahydroquinazolin-2-amine]",≤ 100
9,"Cc1nc(N)nc(N2CCOc3ccc(-c4cnc5[nH]c(N)nc5c4)cc3C2)c1C(C)C [Compound 46, 6-{4-[2-amino-6-methyl-5-(1-methylethyl)pyrimidin-4-yl]-2,3,4,5-tetrahydro-1,4-benzoxazepin-7-yl}-3H-imidazo[4,5-b]pyridin-2-amine]",≤ 100
10,"Cc1nc(N)nc(N2CCOc3ccc(-c4cnc5[nH]cnc5c4)cc3C2)c1Cc1ccc(F)cc1 [Compound 47, 5-[(4-fluorophenyl)methyl]-4-[7-(3H-imidazo[4,5-b]pyridin-6-yl)-2,3-dihydro-1,4-benzoxazepin-4(5H)-yl]-6-methylpyrimidin-2-amine]",≤ 100
11,"Cc1nc2cc(-c3ccc4c(c3)CN(c3nc(N)nc(C)c3Cc3ccc(F)cc3)CCO4)cnc2[nH]1 [Compound 48, 5-[(4-fluorophenyl)methyl]-4-methyl-6-[7-(2-methyl-3H-imidazo[4,5-b]pyridin-6-yl)-2,3-dihydro-1,4-benzoxazepin-4(5H)-yl]pyrimidin-2-amine]",≤ 100
12,"COc1ccc2c(N3CCOc4ccc(-c5cnc6[nH]cnc6c5)cc4C3)nc(CN(C)C)nc2c1 [Compound 49, 1-{4-[7-(3H-imidazo[4,5-b]pyridin-6-yl)-2,3-dihydro-1,4-benzoxazepin-4(5H)-yl]-7-(methyloxy)quinazolin-2-yl}-N,N-dimethylmethanamine]",500 to 2500

# Further lines, results first:
row,IC50 [nM],Compound
1,≤ 100,"CC1(C)CCc2nc(N)nc(N3CCOc4ccc(-c5ccc6[nH]cnc6c5)cc4C3)c2C1 [Compound 27, 4-[7-(1H-benzimidazol-5-yl)-2,3-dihydro-1,4-benzoxazepin-4(5H)-yl]-6,6-dimethyl-5,6,7,8-tetrahydroquinazolin-2-amine]"
2,≤ 100,"Cc1nc2cc(-c3ccc4c(c3)CN(c3cc(N)ncc3C#N)CCO4)ccc2[nH]1 [Compound 28, 6-amino-4-[7-(2-methyl-1H-benzimidazol-5-yl)-2,3-dihydro-1,4-benzoxazepin-4(5H)-yl]pyridine-3-carbonitrile]"
3,≤ 100,"Cc1nc2cc(-c3ccc4c(c3)CN(c3nc(N)nc5c3CC(C)(C)CC5)CCO4)ccc2[nH]1 [Compound 29, 6,6-dimethyl-4-[7-(2-methyl-1H-benzimidazol-5-yl)-2,3-dihydro-1,4-benzoxazepin-4(5H)-yl]-5,6,7,8-tetrahydroquinazolin-2-amine]"
4,≤ 100,"C=CCc1c(C)nc(CN(C)C)nc1N1CCOc2ccc(-c3ccc4nc(C)[nH]c4c3)cc2C1 [Compound 33, N,N-dimethyl-1-{4-methyl-6-[7-(2-methyl-1H-benzimidazol-6-yl)-2,3-dihydro-1,4-benzoxazepin-4(5H)-yl]-5-prop-2-en-1-ylpyrimidin-2-yl}methanamine]"
5,≤ 100,"Cc1nc2cc(-c3ccc4c(c3)CN(c3nc(CNCCF)nc(C)c3C(C)C)CCO4)ccc2[nH]1 [Compound 34, 2-fluoro-N-({4-methyl-6-[7-(2-methyl-1H-benzimidazol-5-yl)-2,3-dihydro-1,4-benzoxazepin-4(5H)-yl]-5-(1-methylethyl)pyrimidin-2-yl}methyl)ethanamine]"
6,≤ 100,"C=CCc1c(C)nc(N)nc1N1CCOc2ccc(-c3ccc4nc(C)[nH]c4c3)cc2C1 [Compound 35, 4-methyl-6-[7-(2-methyl-1H-benzimidazol-5-yl)-2,3-dihydro-1,4-benzoxazepin-4(5H)-yl]-5-prop-2-en-1-ylpyrimidin-2-amine]"
7,≤ 100,"Cc1nc(N)nc(N2CCOc3ccc(-c4ccc5[nH]cnc5c4)cc3C2)c1Cc1ccc(F)cc1 [Compound 36, 4-[7-(1H-benzimidazol-5-yl)-2,3-dihydro-1,4-benzoxazepin-4(5H)-yl]-5-[(4-fluorophenyl)methyl]-6-methylpyrimidin-2-amine]"
8,≤ 100,"Cc1nc2cc(-c3ccc4c(c3)CN(c3nc(N)nc(C)c3Cc3ccc(F)cc3)CCO4)ccc2[nH]1 [Compound 39, 5-[(4-fluorophenyl)methyl]-4-methyl-6-[7-(2-methyl-1H-benzimidazol-5-yl)-2,3-dihydro-1,4-benzoxazepin-4(5H)-yl]pyrimidin-2-amine]"
9,≤ 100,"Cc1nc(N)nc(N2CCOc3ccc(-c4ccc5[nH]cnc5c4)cc3C2)c1C(C)C [Compound 40, 4-[7-(1H-benzimidazol-5-yl)-2,3-dihydro-1,4-benzoxazepin-4(5H)-yl]-6-methyl-5-(1-methylethyl)pyrimidin-2-amine]"
10,≤ 100,"Cc1nc2cc(-c3ccc4c(c3)CN(c3nc(N)nc(C)c3C(C)C)CCO4)ccc2[nH]1 [Compound 41, 4-methyl-6-[7-(2-methyl-1H-benzimidazol-5-yl)-2,3-dihydro-1,4-benzoxazepin-4(5H)-yl]-5-(1-methylethyl)pyrimidin-2-amine]"
